Data: patent publication US9421237B2, “Tripeptide boronic acid or boronic ester, preparative method and use thereof” (PEKING UNIVERSITY, priority 2009, dated 2016)

Experiments:
[1] = test system: BGC-823 human gastric cancer cell; test: Preliminary anti-tumor screening in vitro, SRB method; format: cell-based; design: key to Test results: +++: inhibition rates at three doses are greater than 50%; ++: inhibition rates at two doses are greater than 50%; +: inhibition rate at one dose is greater than 50%; conditions: BGC-823, SRB; for Test results: number of doses with inhibition > 50%; for inhibition at 0.05 µM / inhibition at 0.5 µM / inhibition at 5 µM: Homo sapiens, read-out: Inhibition rate %
Summary of the method: (§1)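 In vitro cytotoxicity by routine methods: MTT read-out for HL-60 cells, SRB read-out for BGC-823, Bel-7402 and KB cells.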

[2] = test system: HL-60 human leukemia cell; test: Preliminary anti-tumor screening in vitro, MTT method; format: cell-based; design: key to Test results: +++: inhibition rates at three doses are greater than 50%; ++: inhibition rates at two doses are greater than 50%; +: inhibition rate at one dose is greater than 50%; conditions: HL-60, MTT; for Test results: number of doses with inhibition > 50%; for inhibition at 0.05 µM / inhibition at 0.5 µM / inhibition at 5 µM: Homo sapiens, read-out: Inhibition rate %
Summary of the method: as §1

[3] = target: T1, 20S proteasome extracted from rat liver, chymotryptic-like (CT-L) activity (Rattus norvegicus, UniProt P18421+P28075); test: Proteasome inhibition, chymotryptic-like (CT-L) activity, fluorescent peptide Suc-leu-leu-Val-Tyr-AMC; format: biochemical; conditions: rat liver 20S proteasome, 37° C., 1 h
T1 construct: 20S proteasome extracted from rat liver; from tissue; host or cells: rat liver
Summary of the method: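 Rat liver 20S proteasome (1 μg) incubated 1 h at 37° C with compounds and 50 μM Suc-Leu-Leu-Val-Tyr-AMC in 20 mM Tris-HCl.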

[4] = target: T2, 20S proteasome extracted from rat liver, peptidyl-glutamyl-peptide-hydrolyzing (PGPH) enzyme activity (Rattus norvegicus, UniProt P28073+Q9JHW0); test: Proteasome inhibition, PGPH activity, fluorescent peptide Z-leu-leu-Glu-βNA; format: biochemical; conditions: rat liver 20S proteasome, 37° C., 1 h
T2 construct: 20S proteasome extracted from rat liver; from tissue; host or cells: rat liver
Summary of the method: (§2)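 Rat liver 20S proteasome (1 μg) incubated 1 h at 37 °C with compounds, 50 μM fluorogenic peptide and 20 mM Tris-HCl. AMC release read at 380/440 nm and βNA release at 335/410 nm. Inhibition rate calculated against a 0.1% DMSO solvent control.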

[5] = target: T3, 20S proteasome extracted from rat liver, trypsin-like (TL) activity (Rattus norvegicus, UniProt P40112+Q9JHW0); test: Proteasome inhibition, trypsin-like (TL) activity, fluorescent peptide Z-Ala-Arg-Arg-AMC; format: biochemical; conditions: rat liver 20S proteasome, 37° C., 1 h; read-out: T-L (IC50)
T3 construct: 20S proteasome extracted from rat liver; from tissue; host or cells: rat liver
Summary of the method: as §2

[6] = test system: BGC-823 (human gastric carcinoma cell strain); test: In vitro anti-tumor activity (IC50), standard MTT method; format: cell-based; conditions: 72 h, average of three determinations
Protocol: (§3) HL-60, BXPC-3 and U266 were obtained from the American Type Culture Collection (Manassas, Va.), and BGC-823 (human gastric carcinoma cell strain) was obtained from China Pharmaceutical University.
(§4) Test methods: HL-60 cells were cultured in IMDM medium containing 20% fetal bovine serum at 37° C. in 5% CO2; BGC-823 cells and BXPC-3 cells were cultured in RPMI1640 medium containing 10% fetal bovine serum at 37° C. in 5% CO2; U266 cells were cultured in RPMI1640 medium containing 15% fetal bovine serum at 37° C. in 5% CO2.
(§5) The cell growth was measured by the standard MTT method. A dispersions (150 μL, containing 3000 cells) medium was added into each well of a 96-well plate and allowed to grow, after 24 h, ten kinds of medium (50 μL) containing different concentrations of drugs were added into the corresponding wells, and continued to incubate for 72 h. Then a solution containing 5 mg/ml MTT (20 μL) was added into each well and incubated for another 4 h at 37° C. The plate was then centrifugated at 1000 rpm at 4° C. for 5 min, and the medium in upper layer was carefully discarded. The precipitates were dissolved in 100 μL of DMSO, and absorbance was read with an Infinite M200 (Tecan, Austria) microplate reader at 540 nm.
(§6) The result was expressed as IC50 value, which is the average value of three independent determinations.

[7] = test system: U266 (multiple myeloma cell strain); test: as above; format: cell-based; conditions: Homo sapiens, U-266, 72 h, average of three determinations
Protocol: as §3, §4, §5, §6

[8] = test system: HL-60 (promyelocytic leukemia cell strain); test: as above; format: cell-based; conditions: Homo sapiens, 72 h, average of three determinations
Protocol: as §3, §4, §5, §6

[9] = test system: BXPC-3 (human pancreatic cancer cell strain); test: as above; format: cell-based; conditions: 72 h, average of three determinations
Protocol: as §3, §4, §5, §6

murine H22 cells = test: In vivo anti-tumor activity, H22 tumor in ICR mice, oral administration; conditions: for Animal numbers Start/End / Body weight (g) (X ± SD): ICR mice with H22; for Inhibition rate (%) / Tumor weight (g) (X ± SD): tumors weighed at 12th day
Protocol: Animal: ICR mice, half male and half female (18-22 g), provided by Laboratory Animal Science Department of Peking Medical University.
Tumor cell strain: murine H22 cells were provided by cell bank of pharmacological group of the State Key Laboratory of Natural and Biomimetic Drugs.
Method: Murine tumor cells were taken to be treated, and diluted to 5×10^6 cells/ml after treatment. The diluted tumor cells solution was inoculated to the left forelimb oxter of the mice with 0.2 ml/mouse under aseptic condition. 24 h after inoculation, the mice were divided into groups and orally administered once per day to the mice in each group for 10 days. At the 12th day, the tumors were peeled off and weighed, and the average weight of the tumor, standard deviation (SD) and p-value of each group were calculated.

[10] = 1 mg/kg orally once per day for 10 days
[11] = 2 mg/kg orally once per day for 10 days

Compound | Test results [1] | inhibition at 0.05 µM [1] [%] | inhibition at 0.5 µM [1] [%] | inhibition at 5 µM [1] [%] | Test results [2] | inhibition at 0.05 µM [2] [%] | inhibition at 0.5 µM [2] [%] | inhibition at 5 µM [2] [%] | IC50 [3] [nM] | IC50 [4] [nM] | IC50 [5] [nM] | IC50 [6] [nM] | IC50 [7] [nM] | IC50 [8] [nM] | IC50 [9] [nM] | Animal numbers Start/End (murine H22 cells; [10]) | Body weight (g) (X ± SD) (murine H22 cells; [10]) | Inhibition rate (%) (murine H22 cells; [10]) | Tumor weight (g) (X ± SD) (murine H22 cells; [10]) | Animal numbers Start/End (murine H22 cells; [11]) | further results
CC(C)C[C@H](NC(=O)[C@H](Cc1ccc2ccccc2c1)NC(=O)[C@H](Cc1ccccc1)NC(=O)c1cnccn1)B(O)O [Compound 6g, N-pyrazineformyl-L-phenylalanyl-L-naphthylalanyl-L-leucine Boronic Acid] | +++ | 76.9 | 95.5 | 97.1 | ++ | 5.68 | 87.8 | 88.6 | 0.111 ± 0.05 | 3.8 ± 0.983 | > 20 | 1040 | 15.8 | 7.4 | 28.7 | 8/8 | -1.28 ± 2.83 | 34.24 | 0.82 ± 0.36 | 8/8 | Body weight (g) (X ± SD) (murine H22 cells; [11]): -0.53 ± 2.58 g; Inhibition rate (%) (murine H22 cells; [11]): 56.33%; Tumor weight (g) (X ± SD) (murine H22 cells; [11]): 0.54 ± 0.28 g; Toxicity in the in vivo anti-tumor test, compared with bortezomib (PS341) (murine H22 cells; ICR mice with H22, oral): even lower
CC(C)C[C@H](NC(=O)[C@H](Cc1ccc2ccccc2c1)NC(=O)[C@H](CC(C)C)NC(=O)c1cnccn1)B(O)O [Compound 6f, N-pyrazineformyl-L-leucyl-L-naphthylalanyl-L-leucine Boronic Acid] | +++ | 80.3 | 95.5 | 96.8 | ++ | 1.26 | 87.4 | 88.6 | 0.079 ± 0.011 | 3.63 ± 1.67 | > 20 | 600 | 9.9 | 4.6 | 21.2 | 8/6 | 1.49 ± 1.07 | 51.67 | 0.60 ± 0.16 | 8/5 | Body weight (g) (X ± SD) (murine H22 cells; [11]): 0.04 ± 4.29 g; Inhibition rate (%) (murine H22 cells; [11]): 55.34%; Tumor weight (g) (X ± SD) (murine H22 cells; [11]): 0.56 ± 0.17 g
